According to ChEMBL document CHEMBL5608141, “Identification of compartment-specific drug sensitivities in CRC organoid-stroma co-cultures” (2024):

What was measured:
Format in all cases: functional, Homo sapiens
Set-up in all cases: dose or concentration left out as unconfirmed
Colon cancer organoid [1] = assay: Identification of compartment-specific drug sensitivities in O20 CRC organoid-stroma F20 CAF co-cultures. Organoid is transduced with Lucferase2-P2A-EGFP lentivirus, fibroblast with Renilla-dsRed lentivirus. Dual-Glo Luciferase assay is used to report viability data.
Colon cancer organoid [2] = assay: Identification of compartment-specific drug sensitivities in O14 CRC organoid-stroma F14 CAF co-cultures. Organoid is transduced with Lucferase2-P2A-EGFP lentivirus, fibroblast with Renilla-dsRed lentivirus. Dual-Glo Luciferase assay is used to report viability data.
Colon cancer organoid [3] = assay: Identification of compartment-specific drug sensitivities in O06 CRC organoid-stroma F06 CAF co-cultures. Organoid is transduced with Lucferase2-P2A-EGFP lentivirus, fibroblast with Renilla-dsRed lentivirus. Dual-Glo Luciferase assay is used to report viability data.
[4] = Transduced with Lucferase2-P2A-EGFP lentivirus
[5] = Transduced with Renilla-dsRed lentivirus

SMILES	Cell Viability (Colon cancer organoid [1]; [4]) [%]	Cell Viability (Colon cancer organoid [1]; [5]) [%]	Cell Viability (Colon cancer organoid [2]; [4]) [%]	Cell Viability (Colon cancer organoid [2]; [5]) [%]	Cell Viability (Colon cancer organoid [3]; [4]) [%]	Cell Viability (Colon cancer organoid [3]; [5]) [%]
C[C@]1(O)C[C@@H](c2nc(-c3ccc4ccc(-c5ccccc5)nc4c3)c3c(N)nccn32)C1 [LINSITINIB]	60.6188	65.9185	56.8923	65.041	53.0716	100.619
O=C(NOC[C@H](O)CO)c1ccc(F)c(F)c1Nc1ccc(I)cc1F [MIRDAMETINIB]	3.902	83.5811	7.045	23.0385	8.8965	49.9042
CCS(=O)(=O)Nc1ccc(Oc2ccc(F)cc2F)c(-c2cn(C)c(=O)c3[nH]ccc23)c1 [MIVEBRESIB]	5.758	64.2458	15.6468	169.821	13.1828	272.686
CN([C@@H]1CCc2c(CC(=O)O)c3ccccc3n2C1)S(=O)(=O)c1ccc(F)cc1 [MK-7246]	94.6909	109.932	114.74	112.48	70.9731	124.085
C[C@@H]1CN(c2cc(-c3nn(C)c4ccc(OC5(C)CC5)cc34)ncn2)C[C@H](C)O1 [MLi-2-NC]	112.711	86.6644	144.766	104.291	55.8067	87.1439
CC(=O)c1c(NS(C)(=O)=O)c2cc(-c3ccc(Cl)cc3)c(-c3ccc(Cl)cc3Cl)nc2n(C)c1=O [MRL-CB1-NC]	159.821	122.581	112.083	107.66	117.339	76.9916
Cc1ccc(-c2cnc([C@@]3(O)CC[C@H](C(=O)O)C(C)(C)C3)s2)cc1Nc1cccc(C(F)(F)F)n1 [MRL-SYKi-NC]	106.503	131.597	134.887	107.343	119.382	86.5869
COc1cc(C(=O)O)ncc1C#Cc1ccccc1NS(=O)(=O)c1cccc2c(N(C)C)ccnc12 [MSC-0516]	90.203	109.372	102.238	113.463	46.2412	64.6541
FC(F)(F)c1ccc2c(c1)nc(-c1cccnc1)n2C1CC1 [MSD-CYP11B2-Negative-control]	98.4614	114.7	73.196	81.5774	103.115	83.1787
CC(C)(O)c1cncc(-c2nc3ccc(F)cc3n2C2CC2)c1 [MSD-CYP11B2]	80.182	128.543	89.9575	101.392	83.611	134.058
N#CC1(c2ccccn2)CCN(Cc2cc(C(=O)N3CCCC3)c(=O)n3ccccc23)CC1 [MSD-M1PAM-NC]	103.159	109.338	93.1425	88.6945	85.4848	72.6928
N#CC1(c2ccccn2)CCN(Cc2cc(C(=O)O)c(=O)n3ccccc23)CC1 [MSD-M1PAM]	53.4383	117.537	84.139	110.281	12.088	188.309
CC(=O)Nc1c(C(C)=O)c(=O)n(C)c2nc(-c3ccc(Cl)cc3Cl)c(-c3ccc(Cl)cc3)cc12 [NAPHTHYRIDINONE]	105.882	98.6055	155.496	107.032	72.6588	141.036
CO[C@@H](C)c1c(Nc2ccc([C@@H](N(C)C(=O)C3CCS(=O)(=O)CC3)C(F)(F)F)cc2)cnc2cc(Cl)nn12 [NVS-MALT1-C]	83.7008	108.215	71.9282	88.3744	50.6957	73.6522
CO[C@@H](C)c1c(Nc2ccc([C@H](N(C)C(=O)C3CCS(=O)(=O)CC3)C(F)(F)F)cc2)cnc2cc(Cl)nn12 [NVS-MALT1]	88.0389	98.697	78.8073	82.3583	54.3511	83.5282
COc1ncc(-c2ccc3nccc(-c4ccnnc4)c3c2)cc1NS(=O)(=O)c1ccc(F)cc1F [OMIPALISIB]	2.282	94.8256	6.452	40.6761	2.362	34.7423
CN1CCN(c2ccc(OC(F)(F)F)c(Nc3ncc4c(n3)-c3c(c(C(N)=O)nn3CCO)CC4)c2)CC1 [ONVANSERTIB]	1.999	184.086	2.108	79.1847	2.834	160.245
Nc1nc(NCc2ccccc2)nc(-c2ccccc2CO)n1 [Ogerin]	81.1547	98.0569	107.532	92.7829	100.001	107.856
CC(=O)NCC(=O)N1[C@@H]2CC[C@H]1c1ccc(Nc3ncc(C(F)(F)F)c(NC4CCC4)n3)cc12 [PF-03814735]	4.585	155.761	7.804	45.5161	12.0789	82.3636
OCCn1cc(-c2cnc3nnn(Cc4ccc5ncccc5c4)c3n2)cn1 [PF-04217903]	122.103	97.2338	55.9796	102.526	88.0795	107.387
C[C@H](c1ccc(F)cc1)N(Cc1cccc(C(=O)O)c1)C(=O)c1cnc2ccccc2c1 [PF-05105679]	143.937	111.508	130.3	106.537	130.848	113.872
C[C@H](c1ccc(F)cc1)N(Cc1ccc(Cl)c(C(=O)O)c1)C(=O)c1cnc2ccccc2c1 [PF-05257137]	147.232	103.742	108.547	109.197	94.0157	76.638
COc1ncc(F)cc1CNc1ccc(Cc2c[nH]c3ncc(C)cc23)c(F)n1 [PLX-5622]	206.903	55.6932	119.621	35.1649	82.7626	63.3822
